Measured values published in patent US11035008B2, “Biomarkers for cancer” (BERGENBIO ASA, priority 2015, dated 2021).

Tests used:
totSLFN11 = assay: Total SLFN11 in AML cell panel, long-term treatment, flow cytometry; type: cell-based, human
Protocol: (§1) Staining of Cells for Flow Cytometry, General Protocol: • Live cells were centrifuged at 300 G for 5 minutes, washed once with PBS and centrifuged again. Cells were then fixed in 4% PFA in PBS for 10 minutes at 37° C., and resuspended in PBS. Unless processed immediately, samples were at this point stored in PBS at 4° C. (up to three weeks) or at −80° C. (for long-term storage). If intracellular epitopes were stained, cells were permebealized in 90% MeOH for 30 minutes on ice. Unless processed immediately, samples were also be stored in 90% MeOH at −20° C. for up to two months. • Further staining procedure (permebealized or non-permebealized cells): • Cells were washed 1× in PBS and blocked in blocking buffer; either PBS+0.5% BSA or PBS+1:1000 Octagam (5 mg/ml) for 15 minutes at room temperature. Thereafter, cells were incubated with primary AB at the indicated dilutions in incubation buffer (IB, PBS+0.5% BSA) for 1 hour at room temperature. Cells were then washed 3× with IB and incubated with secondary AB (conjugated to a fluorescent flurophore) at 1:1000 dilution in IB for 30 minutes at room temperature. Finally, cells were washed 3× in IB and resuspended in PBS. Cells were analyzed immediately, or stored for up to 24 hours at 4° C. before analysis. • Analysis of cells was done on a BD LSR Fortessa or a BD C6 Accuri flow cytometer, and further processing was done using FlowJo v.7.6. • All incubation steps (but not storage) were done on a spinning wheel or gentle shaker.
(§2) The diversity of AML cells and their responses was investigated using a panel of AML cell lines and assessing their responses after BGB324-treatment.
Long-term treatment was done in complete medium, without starvation. The responders were treated with 0.05, 0.1 or 0.3 μM BGB324, whereas the non-responders were treated with only a single dose of 2.5 μM BGB324. The cells were fixed after 24, 48 or 72 hours, and the samples were stored in 90% MeOH at −20° C. until all samples were harvested, and stained for flow at the same time.

SLFN11 = SLFN11 in CD33-positive cells, MOLM13 systemic xenograft model, flow cytometry; type: in vivo, mice; conditions: bone marrows, 50 mg/kg for 4 days
Protocol: (§3) Material from an in vivo MOLM13 systemic model was also evaluated by flow cytometry. Expression of the previously evaluated biomarkers was examined in cells isolated from bone marrows and spleens of animals with systemic AML disease (MOLM13, inoculated for 7 days prior to treatment) treated with BGB324 at 50 mg/kg for 4 days. The spleens analysed were from the same study that was analysed by microarray, as mentioned above. The bone marrows were from an identical study that was done at a later time point to get more material for flow analyses.
(§4) Cells isolated from spleens and bone marrows were assessed for phosphorylation of Erk, PLCγ1 and Akt, and expression of PHGDH and SLFN11. The samples were also co-stained with CD33, and biomarker expression was only evaluated in CD33-positive cells.

pErk = pErk in CD33-positive cells, MOLM13 systemic xenograft model, flow cytometry; type: in vivo, mice; conditions: 50 mg/kg for 4 days
Protocol: as §3, §4

pAxl (Y779) = assay: pAxl(Y779) in AML cell panel, short term treatment, flow cytometry; type: cell-based, human; conditions: 1 hour
Protocol: as §1, §2
When investigating phospho-markers, the cells were starved overnight in the appropriate growth medium containing 0.1% FBS, pre-treated with BGB324 at 0.5 and 1 μM for one hour, and stimulated with 10% FBS for 20 minutes (to induce phosphorylation, with BGB324 present). Cells were then fixed and stained for flow cytometric analyses.

PHGDH = PHGDH by western blot in MOLM13 cells treated in vitro; type: cell-based, human
Protocol: Western Blot, General Protocol: • For western blot analysis, cells were lysed on ice using NP-40 lysis buffer with protease- and phosphatase inhibitors. Total protein concentration in lysates was measured using a BCA protein assay kit following the manufacturers instructions. 10% NuPAGE® Bis-Tris precast gels were loaded with 30-50 μg of protein in each well diluted in sample buffer and antioxidant. A 1:1 mix of MagicMark™ XP Western Protein Standard (Invitrogen) and SeeBlue® Plus 2 Pre-Stained Standard was used as protein standard. Gels were run at 50V for 20 min, then at 100V for 1 h 30 min. Blotting was done on ice for 1 h 30 min at 100V onto PVDF (pre-activated with MeOH) or nitrocellulose membranes. Membranes were washed in TBS-0.1% Tween-20 (TBS-T), and blocked in TBS-T 5% BSA for at least 1 h at RT. Primary ABs were added at 1:1000 in TBS-T 5% BSA (rabbit-anti-actin AB was added at 1:2000) in TBS-T 5% BSA, and membranes were incubated over night at 4° C. Membranes were then washed 3× in TBS-T, and incubated in HRP-conjugated secondary ABs at 1:5000 dilution in TBS-T 5% milk for 45 min at RT. Membranes were developed for 1 min using ECL-reagents and imaged with chemiluminescence using a Molecular Imager ChemiDoc™ XRS (BioRad). • All incubation- and washing steps were done on a roller.

Mv4-11 cells = assay: IC50 of BGB324 by resazurin assay, Mv4-11; type: cell-based; conditions: Homo sapiens, Mv4-11 (responder)
Excerpt: as §2

MOLM13 cells = assay: IC50 of BGB324 by resazurin assay, MOLM13; type: cell-based; conditions: Homo sapiens, MOLM-13, MOLM13 (responder)
Excerpt: as §2

OCI-M1 cells = assay: IC50 of BGB324 by resazurin assay, OCI-M1; type: cell-based; conditions: Homo sapiens, OCI-M1 (non-responder)
Excerpt: as §2

## Nc1nc(Nc2ccc3c(c2)CC[C@@H](N2CCCC2)CC3)nn1-c1cc2c(nn1)-c1ccccc1CCC2 [BGB324, 1-(6,7-dihydro-5H-benzo[6,7]cyclohepta[1,2-c]pyridazin-3-yl)-N3-((7-(S)-pyrrolidin-1-yl)-6,7,8,9-tetrahydro-5H-benzo[7]annulene-2-yl)-1H-1,2,4-triazole-3,5-diamine]
totSLFN11; Kasumi, 2.5 μM, 24 and 48 hours
  SLFN11 expression: no significant differences
totSLFN11; Kasumi, 2.5 μM, 72 hours
  SLFN11 expression: significant increase of SLFN11 expression
totSLFN11; MOLM13, 0.3 μM, 24, 48 and 72 hours
  total protein expression of SLFN11: significant reduction
totSLFN11; Mv4-11, 0.1 uM, 72 hours
  total protein expression of SLFN11: significantly reduced
totSLFN11; Mv4-11, 0.3 μM, 24, 48 and 72 hours
  total protein expression of SLFN11: significant reduction
totSLFN11; OCI-AML5, 2.5 μM, 24 and 48 hours
  SLFN11 expression: no significant differences
totSLFN11; OCI-AML5, 2.5 μM, 72 hours
  SLFN11 expression: significant increase of SLFN11 expression
SLFN11
  SLFN11 expression: significant reduction
pErk; bone marrows
  pErk: significant reduction
pErk; spleens
  pErk: significant reduction
pAxl (Y779); Kasumi, 0.5 and 1 μM
  pAxl: no response to treatment
pAxl (Y779); MOLM13, 0.5 and 1 μM
  phosphorylation of Axl at Y779: significantly reduced
pAxl (Y779); Mv4-11, 0.5 and 1 μM
  phosphorylation of Axl at Y779: significantly reduced
pAxl (Y779); OCI-M1, highest treatment dose
  pAxl: slight (but significant) reduction of pAxl
PHGDH; 2 uM, time-course of 3-7 hours
  PHGDH by western blot: did not see reduction of PHGDH
PHGDH; 0.3 and 0.6 uM, three days
  PHGDH by western blot: did not see reduction of PHGDH
Mv4-11 cells
  IC50: 140 nM
MOLM13 cells
  IC50: 450 nM
OCI-M1 cells
  IC50: 1800 nM
